From patent US6440991B1, “Ethers of 7-desmethlrapamycin” (Wyeth, priority 2000, dated 2002) come the findings set out here.

Values after ≈ are worked out from the molar mass of the structure shown.

Common to all, as to format: cell-based
Test [1] deals with Candida pseudotropicalis. Kind of test: Antifungal activity, microtiter broth dilution MIC. Conditions: Candida pseudotropicalis strain ATCC 28838; RPMI 1640, 35° C., 24-48 hours. The protocol:
(§1) The antifungal activity for the ethers of 7-desmethylrapamycin of this invention was confirmed in a standard pharmacological test procedure which measured the ability of the compound being evaluated to inhibit fungal growth. 42-O-(2-Hydroxy)ethyl 7-desmethylrapamycin […] (Compound I) was evaluated as a representative compound of this invention. The procedure used and results obtained are briefly described below. A 96 U-bottom microtiter plate was filled (50 μl/well) with RPMI 1640. The compounds to be evaluated were placed in appropriate wells, and serial diluted in successive wells to provide 11 dilutions. The concentrations ranged from 64 through 0.06 μug/ml. An adjusted inoculum of fungi (50 μl) was added to each well and the plates were incubated at 35° C. for 24-48 hours. […] Nystatin and amphotericin B were used for the purpose of comparison.

Test [2] has as its system Candida lusitaniae. Description: Antifungal activity, microtiter broth dilution MIC. Conditions: Candida lusitaniae strain 94-3; RPMI 1640, 35° C., 24-48 hours. How it is done: as §1
(In general: In broth dilution the organism is exposed to a series of concentrations in liquid medium.)

For test [3], the system named is Candida tropicalis. Kind of test: Antifungal activity, microtiter broth dilution MIC. To be noted: RPMI 1640, 35° C., 24-48 hours. How it is done: as §1
Test [4] deals with Candida parapsilosis. Description: Antifungal activity, microtiter broth dilution MIC. Conditions: RPMI 1640, 35° C., 24-48 hours. How it is done: as §1
For test [5], the system named is Candida krussii. Description: Antifungal activity, microtiter broth dilution MIC. To be noted: Candida krussii strain 94-2; RPMI 1640, 35° C., 24-48 hours. How it is done: as §1
Test [6] concerns Candida rugosa. Description: Antifungal activity, microtiter broth dilution MIC. Conditions: Candida rugosa strain 94-10; RPMI 1640, 35° C., 24-48 hours. The protocol: as §1
Test [7] deals with Candida albicans. Description: Antifungal activity, microtiter broth dilution MIC. Conditions: RPMI 1640, 35° C., 24-48 hours. The protocol: as §1
Test [8] relates to Aspergillus fumigatus. Kind of test: Antifungal activity, microtiter broth dilution MIC. Conditions: Aspergillus fumigatus strain ATCC 26933; RPMI 1640, 35° C., 24-48 hours. The protocol: as §1
Test [9] relates to Aspergillus niger. Kind of test: Antifungal activity, microtiter broth dilution MIC. To be noted: RPMI 1640, 35° C., 24-48 hours. How it is done: as §1
In test [10] the test system is U87MG human glioblastoma cells. Description: Inhibition of U87MG human glioblastoma cell growth (3H-thymidine incorporation). Conditions: 48 hours incubation with compound. The protocol: The antineoplastic activity of the compounds of this invention were confirmed in a standard pharmacological test procedure which measures the inhibition of U87MG human glioblastoma cell growth (as a function of ^3H-thymidine incorporation), using 42-O-(2-hydroxy)ethyl 7-desmethylrapamycin (Compound I) as a representative compound of this invention. The following briefly describes the procedure used and results obtained. U87MG human glioblastoma cells (ATCC # HTB-14; available from the American Type Culture Collection; 10801 University Boulevard; Manassas, Va. 20110;), were grown in the following media.
Growth Medium: BRL Minimum Essential Medium with Earle Salts (500 mL)
+5 mL BRL MEM Non-Essential Amino Acids (10 mM)
+5 mL BRL Penicillin-Streptomycin (1 0000u/mL,1 0000 μg/mL)
+5 mL BRL Na Pyruvate Solution (100 mM)
+5 mL BRL L-Glutamine 200 mM
+50 mL BRL Fetal Bovine Serum (Qualified)
1. Cells were trypsinized and plated at a concentration of 10^4 cells/well in a final volume of 200 μL growth medium in 96-well flat bottom plates and allowed to adhere for 24 hours at 37° C.
2. The media was removed by aspiration with care to not disturb the cell monolayer. 200 μL of fresh growth media was added per well, allowing enough wells for samples to be run in triplicate. […]
4. […] Mats were counted in a Wallac Betaplate counter.
In general terms: Dividing cells build labelled thymidine or BrdU into new DNA.

The mark [11] stands for this setting: Candida tropicalis strain 94-13.
The mark [12] stands for this setting: Candida tropicalis strain 94-14.
The mark [13] stands for this setting: Candida parapsilosis strain 94-8.
The mark [14] stands for this setting: Candida parapsilosis strain 94-9.
[15] abbreviates: Candida parapsilosis strain ATCC 90018.
Setting [16] is: Candida albicans strain ATCC 90028.

Regarding `C[C@@H]1[C@H](O)[C@@H](C)/C=C/C=C/C=C/C=C/C=C/C=C/C=C/[C@H](O[C@@H]2O[C@H](C)[C@@H](O)[C@H](N)[C@@H]2O)C[C@@H]2O[C@](O)(C[C@@H](O)C[C@@H](O)[C@H](O)CC[C@@H](O)C[C@@H](O)CC(=O)O[C@H]1C)C[C@H](O)[C@H]2C(=O)O` [Amphotericin B, amphotericin B], the “ANTIFUNGAL ACTIVITY (MIC)” value is “≦0.06 μg/mL” in test [1]; “≦0.06 μg/mL” in [2]; “≦0.06 μg/mL” in [3] (setting [11]); “≦0.06 μg/mL” in [3] (setting [12]); “≦0.06 μg/mL” in test [4] (setting [13]); 0.12 µg/mL in test [4] (setting [14]). The “ANTIFUNGAL ACTIVITY (MIC)” value was “≦0.06 μg/mL” in test [4] (setting [15]); 0.12 µg/mL in test [5]; 0.25 µg/mL in [6]; “≦0.06 μg/mL” in test [7] (Candida albicans strain 1063); 0.12 µg/mL in test [7] (Candida albicans strain 1117); 0.12 µg/mL in test [7] (setting [16]). In addition, the entries for the “ANTIFUNGAL ACTIVITY (MIC)” value in test [8], in [9] (Aspergillus niger strain S399) and in test [9] (Aspergillus niger strain S430) were 0.25 µg/mL, 0.50 µg/mL and 0.25 µg/mL, respectively.
`CO[C@@H]1C[C@H](C[C@@H](C)[C@@H]2CC(=O)[C@H](C)/C=C(\C)[C@@H](O)[C@@H](OC)C(=O)[C@H](C)C[C@H](C)/C=C/C=C/C=C(\C)[C@@H](O)C[C@@H]3CC[C@@H](C)[C@@](O)(O3)C(=O)C(=O)N3CCCC[C@H]3C(=O)O2)CC[C@H]1OCCO` [Compound I, 42-O-(2-Hydroxy)ethyl 7-desmethyirapamycin]: the “ANTIFUNGAL ACTIVITY (MIC)” value in test [1] came to 2 µg/mL; in test [2], 1 µg/mL; in test [3] (setting [11]), 0.5 µg/mL; in test [3] (setting [12]), 0.5 µg/mL; in test [4] (setting [13]) it was 2 µg/mL; in test [4] (setting [14]), 2 µg/mL. The “ANTIFUNGAL ACTIVITY (MIC)” value came to 2 µg/mL in [4] (setting [15]); 0.5 µg/mL in [5]; 1 µg/mL in test [6]; 1 µg/mL in test [7] (Candida albicans strain 1063); 2 µg/mL in test [7] (Candida albicans strain 1117); 2 µg/mL in test [7] (setting [16]). For the same compound, the “ANTIFUNGAL ACTIVITY (MIC)” value in [8], in test [9] (Aspergillus niger strain S399) and in [9] (Aspergillus niger strain S430) was 64 µg/mL each time. Besides, the IC50 (in general, the concentration that inhibits the measured activity by half) in [10] came out at 0.0035 µg/mL (≈ 3.71 nM).
With `C[C@@H]1[C@H](O)[C@@H](C)/C=C/C=C/CC/C=C/C=C/C=C/C=C/C(O[C@H]2O[C@H](C)[C@@H](O)[C@H](N)[C@@H]2O)CC2O[C@](O)(CC(O)C(O)CCC(O)CC(O)CC(O)CC(=O)O[C@H]1C)CC(O)C2C(=O)O` (stereo partly shown) [Nystatin], the “ANTIFUNGAL ACTIVITY (MIC)” value is 1 µg/mL in test [1]; 1 µg/mL in [2]; 1 µg/mL in [3] (setting [11]); 1 µg/mL in test [3] (setting [12]); 2 µg/mL in [4] (setting [13]); 1 µg/mL in test [4] (setting [14]). In addition, the “ANTIFUNGAL ACTIVITY (MIC)” value worked out at 2 µg/mL in test [4] (setting [15]); 1 µg/mL in test [5]; 1 µg/mL in test [6]; 1 µg/mL in test [7] (Candida albicans strain 1063); 1 µg/mL in [7] (Candida albicans strain 1117); 1 µg/mL in [7] (setting [16]). Moreover, the entries for the “ANTIFUNGAL ACTIVITY (MIC)” value in [8], in [9] (Aspergillus niger strain S399) and in test [9] (Aspergillus niger strain S430) were 2 µg/mL, 2 µg/mL and 1 µg/mL, respectively.
